Consider one compound from patent US20240336617A1, “Substituted Bimane Compounds and Methods of Use Thereof” (THE TRUSTEES OF THE UNIVERSITY OF PENNSYLVANIA, priority 2023, published 2024).

Data set [1] is described as follows: Fluorescence (emission) measurements.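 Note: fluorescence emission spectra recorded on a spectrofluorometer, with each compound excited at its own absorption maximum.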 Type of data set: physicochemical.
Description: The fluorescence spectrum of each derivative (150 μL) was measured on a Photon Technology International (PTI) QuantaMaster™ 40 fluorescence spectrometer by excitation at the maximum absorption wavelength for each compound.
The fluorescence spectrum of each derivative (150 μL) was measured on a Photon Technology International (PTJ) QuantaMaster™ 40 fluorescence spectrometer by excitation at the maximum absorption wavelength for each compound.
Data set [2] can be described thus: Molar absorptivity determination.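 Note: molar absorptivity derived from UV-Vis absorbance spectra recorded for each derivative on a spectrometer.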 Type of data set: physicochemical.
Description: The absorbance spectrum of each derivative (150 μL) was measured on a Thermo Scientific Genesys 150 UV-Vis spectrometer, using 50:50 ACN/PBS as a blank.
Molar absorptivity determination. […] The absorbance spectrum of each derivative (150 μL) was measured on a Thermo Scientific Genesys 150 UV-Vis spectrometer, using 50:50 ACN/PBS as a blank.
The nature of data set [3]: Fluorescent quantum yield (QY) measurements. Type of data set: physicochemical. The gist of the method:
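Fluorescence quantum yield was measured for each dye by first recording the incident excitation light spectrum with 1 mL of solvent. JASCO Quantum Yield Software then computed QY as the dye's fluorescence intensity divided by the drop in incident light intensity between dye-absent and dye-present samples. A full incident excitation spectrum with this setup needs an excitation wavelength of at least 360 nm.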

Data set [4] is described as follows: Solvatochromic measurements. The class given is physicochemical. The following applies: organic solvents of different polarity. How it is done:
The remaining 850 μL solution was used to obtain fluorescence images under a handheld 365 nm UV lamp.
Solvatochromic measurements. […] The remaining 850 μL solution was used to obtain fluorescence images under a handheld 365 nm UV lamp.

The target of data set [5] is T1, αS fibrils (Homo sapiens, UniProt P37840).
T1 construct: intein-His6 (C, cleaved yes); made in house; host or cells: Escherichia coli BL21
The data set is described as follows: Probe binding (Kd) measurements with αS fibrils. Conditions: 100 μM αS PFFs; probe 10 nM-10 μM. How it is done: (§1) αS fibrils (100 μM) in PBS buffer were incubated with varying 7k, 7l, and 7m concentrations (0, 0.01, 0.1, 0.5, 1, 3, 5, 7, and 10 μM) from concentrated 10 mM DMSO stock solutions in Greiner 96 well flat black […] plates at 37° C. with shaking at 500 rpm for 15 min in an IKA MS3 control orbital shaker (Wilmington, NC, USA). After 15 min incubation, fluorescence intensity measurements were obtained with a Tecan Spark plate reader (Mannedorf, Switzerland) by excitation with λex/λem=424/570 nm for 7k, λex/λem=463/580 nm for 7l, and λex/λem=484/620 nm for 7m, using the following parameters: excitation and emission bandwidth 5 nm, delay time 0 μs, integration time 40 μs. Averages and standard deviations were calculated from at least 3 independent measurements at each probe concentration. The resulting binding curve was fit to the following equation (modified from the One site—Total, accounting for ligand depletion model) in Graphpad Prism 9 (San Diego, CA, USA), from which the Kd was determined.
Fluorescence Spectra with αS Fibrils
as §1, with “5k” for “7k, 7l, and 7m”, “with” for “with λex/λem=424/570 nm for 7k,”, “5k,” for “7l, and λex/λem=484/620 nm for 7m,”

Data set [6] concerns the target T1, αS fibrils. The data set is described as follows: Fluorescence spectra with αS fibrils. Type of data set: binding. Conditions: presence of αS PFFs. Here is the method: Fluorescence measurements were performed using a PTI QuantaMaster™ 40 fluorescence spectrometer. Fluorescence spectra of 10 μM probes (concentrated stock solution prepared as 10 mM in DMSO) (7b, 7c, 7d, 7e, 7f, 7g and 7h) in PBS buffer were measured by excitation at their absorbance maximum wavelength in the absence and presence of 50 μM αS fibrils (stock solution 100 μM αS fibrils in PBS buffer).
Fluorescence spectra with αS fibrils. Fluorescence measurements were performed using a PTI QuantaMaster 40 fluorescence spectrometer. Fluorescence spectra of 10 μM probes (concentrated stock solution prepared as 10 mM in DMSO) (5b-5f and 5h) in PBS buffer were measured by excitation at their absorbance maximum wavelength in the absence and presence of 50 μM αS fibrils (stock solution 100 μM αS fibrils in PBS buffer). […] FIGS. 77A-77F show fluorescence spectra of probes (5b-5f and 5h) with and without αS fibrils. Final concentrations of probes and αS fibrils were 10 μM and 50 μM, respectively. Emission spectra collected at each dye's maximum absorption wavelength. Ex/Em slit widths: 3 nm/3 nm. […] Absorbance is shown in FIG. 78A and FIG. 78B, whereas FIG. 78C and FIG. 78D show excitation spectra of probes 5j and 5k with and without αS fibrils. Final probe and fibrils concentrations were 10 μM and 50 μM, respectively. […] Emission wavelengths were 575 nm for 5j, 580 nm for 5k. Ex/Em slit widths: 3 nm/3 nm. […] Black line indicates incident light (αS fibrils without probe) and blue line indicates sample (αS fibrils with probe). Excitation at λexc=435 nm for 5j and λexc=463 nm for 5k and spectral collection (400-800 nm). Final concentrations of the probe and αS fibrils are the 100 μM. Ex/Em slit widths: 5 nm/5 nm.

The subject of data set [7] is αS fibrils versus tau fibrils. The data set is described as follows: Amyloid selectivity by plate reader, αS versus tau fibrils. The class given is binding. Conditions: 5 μM fibril concentrations; probe 1 μM. How it is done: Experiments were performed on the Tecan Spark in Greiner 96 well flat black ½ area plates using the following parameters: excitation and emission band widths 5 nm, lag time 0 μs, integration time 40 μs. A 10 mM DMSO stock solution of probes (7j-7m) and 100 μM stock of αS fibrils were used in the study described herein.

The nature of data set [8]: Absorbance measurements (UV-Vis).
Description: Samples were individually diluted to the final concentration of 25 μM (500 μL) using 50:50 acetonitrile in phosphate buffered saline (ACN/PBS). The absorbance spectrum of each derivative (150 μL) was measured on a Thermo Scientific Genesys 150 UV-Vis spectrometer, using 50:50 ACN/PBS as a blank.
Setting [9] is: 25 μM in ACN/PBS buffer (1:1 v/v), pH 7.4.

For `Cc1c(C)n2c(/C=C/c3ccc(N4CCOCC4)cc3)c(C)c(=O)n2c1=O` [Compound 7k, (E)-2,3,6-trimethyl-5-(4-morpholinostyryl)-1H,7H-pyrazolo[1,2-a]pyrazole-1,7-dione], the entries for the “Emission λmax” value in data set [1] (25 μM in ACN) and in data set [1] (setting [9]) were 565 nm and 603 nm, respectively. The Stokes shift in data set [1] (ACN/PBS buffer (1:1 v/v)) was found to be 217 nm; in data set [1] (in ACN) it was 187 nm; on αS fibrils [6] (difference between λex and λem), 146 nm. The “Molar Absorptivity (ε)” value turned out to be 29562 M⁻¹ cm⁻¹ in data set [2] (ACN/PBS buffer (1:1 v/v), pH 7.4) and 28890 M⁻¹ cm⁻¹ in data set [2] (in ACN, at maximum absorption wavelength). The “Fluorescence QY” value in data set [3] (ACN/PBS buffer (1:1 v/v)) is 1.0%. In data set [3] (in ACN), this compound gave a Fluorescence quantum yield of 6.9%. In addition, the QY result in data set [3] (in ACN) is “about 7%”. Moreover, the “emission span across solvents (solvatochromism)” value in data set [4] is on record as 490-590 nm. The compound further gave a Kd at αS fibrils [5] of 2450 ± 1240 nM. The λem on αS fibrils [6] (dye 10 μM, PFF 50 μM) is listed as 570 nm. In data set [7], the “fluorescence turn on with αS relative to tau” value worked out at 2 fold. For the same compound, the “Absorbance λmax” value in data set [8] (25 μM in ACN) came out at 378 nm; in data set [8] (setting [9]), 386 nm.

The Kd is the concentration at which binding is half-saturated. A lower Kd goes with higher affinity.
